# Earlier results as cited in patent publication US20200268817A1, “CANNABINOID COMPOSITIONS, METHODS OF MANUFACTURE AND USE THEREOF” (priority 2016, published 2020).
# Read-outs that look alike come from different tables or passages of the source.
# Key:
# [1] = molecular target: CB2 (Homo sapiens, UniProt P34972)
# [2] = system: human peripheral blood
# [3] = system: patients; conditions: low cannabinoid dosages; vs placebo
# [4] = system: patients with acute paranoid schizophrenia; conditions: for psychotic symptoms (Brief Psychiatric Rating Scale, Positive and Negative Syndrome Scale): after 2 and 4 weeks, 42 patients
# [5] = system: peripheral blood mononuclear cells; conditions: added to peripheral blood mononuclear cells in vitro
# [6] = system: advanced cancer patients with substantial appetite loss; conditions: 469 advanced cancer patients; p=0.0001
# [7] = system: patients; conditions: Phase III study (31)
# [8] = system: cancer patients
# [9] = system: advanced cancer patients; conditions: patients receiving chemotherapy; compared to placebo
# [10] = system: synovial cells isolated from mice
# [11] = system: schizophrenic patients; conditions: over six weeks
# [12] = system: prostaglandin E2; conditions: more potent than aspirin
# Chain of CB2 (P34972 whole entry, species assumed): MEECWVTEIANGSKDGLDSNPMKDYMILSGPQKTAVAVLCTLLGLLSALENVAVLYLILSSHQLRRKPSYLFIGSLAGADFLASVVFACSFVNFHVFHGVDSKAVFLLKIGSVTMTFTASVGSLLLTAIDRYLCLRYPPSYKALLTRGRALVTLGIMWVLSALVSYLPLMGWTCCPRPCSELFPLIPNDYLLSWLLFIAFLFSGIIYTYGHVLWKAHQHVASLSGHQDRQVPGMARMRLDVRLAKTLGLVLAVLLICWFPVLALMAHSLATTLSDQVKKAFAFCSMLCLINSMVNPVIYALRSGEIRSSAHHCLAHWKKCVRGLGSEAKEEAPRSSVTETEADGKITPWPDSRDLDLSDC
compound,measurement,setting,value
"C=C1CC/C=C(\C)CC[C@@H]2[C@@H]1CC2(C)C [Beta caryophyllene, Beta-caryophyllene]",binding to CB2,[1],binds
same,TNF alpha and IL-lb expression,[2],inhibits
"CCCCCc1cc(O)c2c(c1)OC(C)(C)[C@@H]1CCC(C)=C[C@@H]21 [THC, Tetrahydrocannabinol]",differences between the groups in improvement in appetite or weight-gain,[3],No significant differences
same,start of psychotropic effects,inhaled,within seconds to a few minutes
same,time to maximum psychotropic effects,inhaled,15 to 30 min
same,time until psychotropic effects taper off,inhaled,2 to 3 h
same,delay until psychotropic effects set in,oral ingestion,30 to 90 min
same,time to maximum psychotropic effects,oral ingestion,120 to 180 min
same,duration of psychotropic effects,"oral ingestion, depending on dose and specific effect",4 to 12 h
CCN1CCCC1CNC(=O)c1cc(S(=O)(=O)CC)c(N)cc1OC (centres unmarked) [amisulpride],"psychotic symptoms (Brief Psychiatric Rating Scale, Positive and Negative Syndrome Scale)",[4],significant decrease of psychotic symptoms
O=c1cc(-c2ccc(O)c(O)c2)oc2cc(O)cc(O)c12 [Luteolin],"production of TNFa, IL-lb, and IL-6",[5],suppress
CC(=O)O[C@]1(C(C)=O)CC[C@H]2[C@@H]3C=C(C)C4=CC(=O)CC[C@]4(C)[C@H]3CC[C@@]21C [megestrol acetate],patients reporting appetite improvement,[6],75%
same,true response (weight gain of >=10% from baseline weight),[7],11%
CCCCCc1cc(O)c2c(c1)OC(C)(C)[C@@H]1CCC(C)=C[C@@H]21 [dronabinol],patients with decreased nausea,"[8]; cancer patients, placebo 7%",20%
same,patients with increased appetite,"[8]; cancer patients, placebo 8%",38%
same,patients who gained >=2 kg,"[8]; placebo 10.5%, did not reach significance",22%
same,patients reporting appetite improvement,[6],49%
same,true response (weight gain of >=10% from baseline weight),[7],3%
same,"taste and smell perception, appetite and caloric intake",[9],improvement
"C=C(C)[C@@H]1CCC(C)=C[C@H]1c1c(O)cc(CCCCC)cc1O [CBD, Cannabidiol]",affinity for CB2 receptor,[1],very low affinity
same,release of TNF-alpha,[10],suppressed
same,positive and cognitive symptoms,"[11]; add-on to anti-psychotic, 88 patients",improved positive and cognitive symptoms
same,adverse effects,[11],no severe adverse effects
same,"side effects (extrapyramidal symptoms, increase in prolactin, weight gain) compared to amisulpride",[4]; 4 week trial,significantly fewer side effects
same,"psychotic symptoms (Brief Psychiatric Rating Scale, Positive and Negative Syndrome Scale)",[4],significant decrease of psychotic symptoms
COc1cc(-c2cc(=O)c3c(O)c(C/C=C(\C)CCC=C(C)C)c(O)cc3o2)ccc1O [Cannaflavin A],potency as inhibitor of prostaglandin E2 relative to aspirin,[12],30 ×
